In ChEMBL document CHEMBL3638918, “Pyrazole derivatives” (2015) one finds Ki data, which are given here for one molecule.

A word on the pKi: it is the Ki on a negative log10 scale, so that one unit is a factor of ten.

pKi: −log10 of the molar value.

Assay [1] deals with Trace amine-associated receptor 1 (Rattus norvegicus, UniProt Q923Y9). Description: Nonspecific binding was defined as the amount of 3-[H]-(S)-4-[(ethyl-phenyl-amino)-methyl]-4,5-dihydro-oxazol-2-ylamine bound in the presence of 10 uM unlabeled ligand. All compounds were tested at a broad range of concentrations (10 pM to 10 uM) in duplicates. The test compounds (20 ul/well) were transferred into a 96 deep well plate (TreffLab), and 180 ul of HEPES-NaOH (20 mM, pH 7.4) containing MgCl2 (10 mM) and CaCl2 (2 mM) (binding buffer), 300 ul of the radioligand 3[H](S)-4-[(ethyl-phenyl-amino)-methyl]-4,5-dihydro-oxazol-2-ylamine at a concentration of 3.3Kd in nM. The format is cell membranes.
Sequence of Trace amine-associated receptor 1 (Rattus norvegicus, UniProt Q923Y9) (Q923Y9 whole entry): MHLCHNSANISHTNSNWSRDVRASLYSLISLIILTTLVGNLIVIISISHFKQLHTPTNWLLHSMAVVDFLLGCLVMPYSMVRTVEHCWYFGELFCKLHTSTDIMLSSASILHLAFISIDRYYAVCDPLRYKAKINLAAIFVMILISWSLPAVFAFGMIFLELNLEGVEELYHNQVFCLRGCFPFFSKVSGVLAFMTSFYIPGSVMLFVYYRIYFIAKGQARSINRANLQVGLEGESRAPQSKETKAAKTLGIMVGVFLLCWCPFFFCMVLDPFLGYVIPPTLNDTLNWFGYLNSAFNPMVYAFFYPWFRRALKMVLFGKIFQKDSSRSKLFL

Assay [2] has as its target Trace amine-associated receptor 1 (Mus musculus, UniProt Q923Y8). In words: Radioligand Binding: The TAAR1 radioligand 3[H](S)-4-[(ethyl-phenyl-amino)-methyl]-4,5-dihydro-oxazol-2-ylamine (described in WO 2008/098857) was used at a concentration equal to the calculated Kd value, that was usually around 0.7 nM, resulting in the binding of approximately 0.5% of the radioligand and a specific binding representing approximately 70% of the total binding. Nonspecific binding was defined as the amount of 3[H](S)-4-[(ethyl-phenyl-amino)-methyl]-4,5-dihydro-oxazol-2-ylamine bound in the presence of 10 uM unlabeled ligand. All compounds were tested at a broad range of concentrations ([…]) in duplicates.

Sequence of Trace amine-associated receptor 1 (Mus musculus, UniProt Q923Y8) (Q923Y8 whole entry): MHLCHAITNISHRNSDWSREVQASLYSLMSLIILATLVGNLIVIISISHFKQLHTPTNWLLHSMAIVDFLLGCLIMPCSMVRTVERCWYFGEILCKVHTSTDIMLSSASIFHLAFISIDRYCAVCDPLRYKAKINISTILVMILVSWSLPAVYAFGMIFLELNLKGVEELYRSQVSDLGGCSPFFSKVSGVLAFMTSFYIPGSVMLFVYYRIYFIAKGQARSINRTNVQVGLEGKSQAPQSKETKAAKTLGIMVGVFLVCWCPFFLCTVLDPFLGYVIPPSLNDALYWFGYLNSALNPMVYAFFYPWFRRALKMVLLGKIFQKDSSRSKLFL

Consider `COc1cccc(-c2cc(C(=O)Nc3ccc([C@H]4CNCCO4)cc3)n(C)n2)c1`, for which the pKi was 8.06 in assay [1] and 8.19 in assay [2].
